Measured values published in PubChem BioAssay AID720495 (Broad Institute, 2013).
Results filed as inconclusive are left out. Activity calls are given as the source filed them. How the calls were made is not given here.

These compounds were tested against Protein AF-9 (Homo sapiens) (UniProt P42568) (assay: inhibitors of AF4-AF9 protein interaction, dose response, biochemical, cherry-picked samples, plate reader (AID 720495)). Conditions: biochemical protein-protein interaction assay.
Chain of Protein AF-9 (Homo sapiens) (P42568 whole entry, looked up): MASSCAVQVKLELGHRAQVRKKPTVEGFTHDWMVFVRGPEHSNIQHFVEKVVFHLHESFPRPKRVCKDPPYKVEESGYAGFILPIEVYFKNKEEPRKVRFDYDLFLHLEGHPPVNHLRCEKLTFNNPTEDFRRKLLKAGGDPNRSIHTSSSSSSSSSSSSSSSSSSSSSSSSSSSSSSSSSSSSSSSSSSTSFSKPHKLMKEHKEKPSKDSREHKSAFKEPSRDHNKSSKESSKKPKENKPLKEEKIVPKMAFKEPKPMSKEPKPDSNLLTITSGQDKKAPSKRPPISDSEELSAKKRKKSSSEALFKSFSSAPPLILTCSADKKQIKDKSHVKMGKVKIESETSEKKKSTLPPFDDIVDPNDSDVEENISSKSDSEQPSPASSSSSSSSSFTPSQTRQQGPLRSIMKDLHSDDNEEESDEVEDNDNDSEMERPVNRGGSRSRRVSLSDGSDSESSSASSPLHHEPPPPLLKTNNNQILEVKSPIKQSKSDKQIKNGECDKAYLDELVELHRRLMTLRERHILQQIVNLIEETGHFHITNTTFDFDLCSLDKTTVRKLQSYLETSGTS
With `COc1cc(N(C)C)ccc1C=c1c2ccccc2n2c1cc(-c1ccccc1)[n+]2C` the AC50 was 1.88 µM. In the case of `CN1CCN(c2ccc(N)cc2Cl)CC1`, the AC50 is reported as 2.11 µM. `O=C(COc1cc(F)ccc1[N+](=O)[O-])Nc1ccc(N2CCCCC2)cc1` showed an AC50 of 9.04 µM. `Cc1[nH]c2ccccc2c1C(C#N)(C#N)C1C(=O)c2ccccc2C1=O` gave an AC50 of 0.981 µM. `COc1cc(Nc2c3ccccc3nc3ccccc23)cc(OC)c1OC` gave an AC50 of 0.234 µM. Compound `O=C(Nc1ccc(N2CCCCCC2)cc1)c1ccc[nH]1` has an AC50 of 5.21 µM. Compound `NCC(O)c1cc(O)c(O)cc1F` (configuration not stated) has an AC50 of 6.14 µM. `Cc1cccc(N=NC(=S)NNc2cccc(C)c2)c1` gave an AC50 of 0.212 µM. Compound `C[C@@H]1CCCCO[C@H](CN(C)Cc2ccc(Cl)c(Cl)c2)[C@@H](C)CN([C@H](C)CO)C(=O)c2cc(N(C)C)ccc2O1` has an AC50 of 10.1 µM. For `COCCN=c1scc(-c2ccco2)n1/N=C/c1ccc(O)c(O)c1O`, the AC50 was 0.538 µM. Work on `CCCN(CC1CC1)c1cc2c(c3c1ccn3C)C1CCC2C1` (configuration not stated) yielded an AC50 of 7.79 µM. `CCN(CC)c1ccc(C(=C2C=CC(=[N+](CC)CC)C=C2)c2ccc(S(=O)(=O)O)cc2S(=O)(=O)[O-])cc1` showed an AC50 of 4.29 µM. For `CN(C)CCNc1ncnc2c1sc1nc(-c3ccccc3)c3c(c12)CCCC3`, the AC50 was 6.89 µM. `C[n+]1c(-c2ccccc2)c2cc(N)ccc2c2ccc(N)cc21` gave an AC50 of 9.5 µM. With `CN1CCN(CCCCOc2ccccc2C=O)CC1` the AC50 was 10.6 µM. Work on `CCC1CN2CCc3cc(OC)c(OC)cc3C2CC1CC1NCCc2c1[nH]c1ccc(O)cc21` (configuration not stated) yielded an AC50 of 7.26 µM. In the case of `CC(C)(C)OC(=O)N1CCCN(C(c2ccnc3ccccc23)c2nnnn2-c2ccc3c(c2)OCCO3)CC1` (configuration not stated), the AC50 is reported as 0.312 µM. Work on `CC(C)Nc1ccc(Nc2ccnc3cc4ccccc4cc23)cc1` yielded an AC50 of 2.45 µM. Work on `COc1ccc2[nH]c(C)c(CCNCc3cn(C)c4ccccc34)c2c1` yielded an AC50 of 6.85 µM. Work on `C[C@H]1CCCCO[C@H](CN(C)Cc2ccc(Cl)c(Cl)c2)[C@@H](C)CN([C@@H](C)CO)C(=O)c2cc(N(C)C)ccc2O1` yielded an AC50 of 10.6 µM. Compound `COc1cccc(CNCCc2c[nH]c3ccccc23)c1OCc1ccccc1` has an AC50 of 11.5 µM. In the case of `CN1CCN(C(c2ccc(C(F)(F)F)cc2)c2ccc3cccnc3c2O)CC1` (configuration not stated), the AC50 is reported as 0.857 µM. In the case of `CC(C)Nc1ccc(Nc2ccccc2)cc1`, the AC50 is reported as 10.9 µM. For `CN(C)c1ccc(C=c2c3ccccc3n3c2c2ccccc2[n+]3C)cc1`, the AC50 was 1.65 µM. In the case of `COc1ccccc1N(C(C)=O)C1=C(Cl)C(=O)c2ccccc2C1=O`, the AC50 is reported as 7.96 µM. For `O=C1c2ccccc2NC(c2cccc([N+](=O)[O-])c2)N1O` (configuration not stated), the AC50 was 11.2 µM. In the case of `COc1ccc(N2CCN(CCCNC(=O)CCC(=O)N3CCOc4ccc(Cl)cc43)CC2)cc1`, the AC50 is reported as 11.5 µM. Work on `CN(C)c1ccc(N=C/C=C2/N(C)c3ccccc3C2(C)C)cc1` yielded an AC50 of 7.5 µM. For `CCN(CC)c1ccc(C(=C2C=CC(=[N+](CC)CC)C=C2)c2ccccc2)cc1`, the AC50 was 0.685 µM. `C#CCOCCOCCOCCNc1nc(N2CCN(C(=O)[C@H](CCCCN)n3cc(CCCC)nn3)CC2)nc(N2CCN(C(=O)[C@H](CCCCN)n3cc(CCCC)nn3)CC2)n1` showed an AC50 of 11.3 µM. In the case of `C#CCOCCOCCOCCNc1nc(N2CCN(C(=O)[C@H]([C@@H](C)CC)n3cc(CCCN=C(N)N)nn3)CC2)nc(N2CCN(C(=O)[C@H](CCCCN)n3cc(CCCC)nn3)CC2)n1`, the AC50 is reported as 8.98 µM. Work on `O=C1c2cccc(NCCNCCO)c2C(=O)c2cccc(NCCNCCO)c21` yielded an AC50 of 6.88 µM. With `COc1cc(OC)c2c(-c3ccccc3)cc(=O)oc2c1C(CCN1CCCCC1)c1ccc2c(c1)OCO2` (configuration not stated) the AC50 was 1.08 µM. For `C#CCOCCOCCOCCNc1nc(N2CCN(C(=O)[C@H](CCCCN)n3cc(CN)nn3)CC2)nc(N2CCN(C(=O)[C@H](CCCN=C(N)N)n3cc(C(N)[C@H](C)CC)nn3)CC2)n1` (some centres not stated), the AC50 was 2.81 µM. `CC(C)(C)C1=CC(=Nc2ccccc2N)C=C(C(C)(C)C)C1=O` showed an AC50 of 0.761 µM. In the case of `CN(C)c1cc2c3ccccc3n(C)c2cc1N`, the AC50 is reported as 1.08 µM. Work on `CC[C@H](C)[C@@H]1NC(=O)c2cc([N+](=O)[O-])cc(F)c2NCCCC[C@@H](C(N)=O)NC(=O)[C@H](CCCCN)NC1=O` yielded an AC50 of 9.36 µM. In the case of `O=C1C(Cl)=CC(=Nc2ccc(O)cc2)C=C1Cl`, the AC50 is reported as 11.4 µM. Compound `CS(=O)(=O)N1CCCCN2[C@H](C1)[C@H](c1ccc(C#Cc3ccccn3)cc1)[C@@H]2CO` has an AC50 of 7.82 µM. `COc1cccc(NC2=C(NCCO)C(=O)c3ccccc3C2=O)c1` gave an AC50 of 6.38 µM. For `COc1ccc2c(c1)c(=Cc1ccc(N(C)C)cc1)c1cc(-c3ccccc3)[n+](C)n12`, the AC50 was 2.49 µM. `CCCC(=O)NC(c1ccc(OC)cc1)c1ccc2cccnc2c1O` (configuration not stated) showed an AC50 of 0.865 µM. In the case of `Cc1ncc(CO)c(/C=N/NC(=S)Nc2ccc(Cl)c(Cl)c2)c1O`, the AC50 is reported as 5.79 µM. `CN(C(=O)c1ccc(NC(=O)Cc2ccc(NC(=O)C3CCN(C(=O)c4ccccc4)CC3)cc2)cc1)C1CC1` gave an AC50 of 0.233 µM. `N#C/C(C(N)=O)=c1/ccc2c(c1)N1C3=C(CCCC3)CC3CCCCC31N=2` (configuration not stated) was tested, and the AC50 was 0.767 µM. Compound `CCN(CC)CCOc1ccc(/C(=C(/Cl)c2ccccc2)c2ccccc2)cc1` has an AC50 of 0.529 µM. For `CN(C)CCCNC(=O)c1ccc(-c2cc(O)c3ncccc3c2)cc1`, the AC50 was 0.693 µM. `CC[n+]1c(/C=C/c2ccc(N(C)C)cc2)ccc2ccccc21` showed an AC50 of 8.28 µM. For `COc1ccc(OC)c(Nc2c3ccccc3nc3ccccc23)c1`, the AC50 was 7.11 µM. Compound `CN1CCN(/N=C/c2ccc(-c3ccc([N+](=O)[O-])cc3Cl)o2)CC1` has an AC50 of 9.35 µM. With `CCc1cccc(NC(=O)CCCCCC2NC(=O)NC2C)c1` (configuration not stated) the AC50 was less than 0.08 µM.

Same assay, conditions: biochemical protein-protein interaction assay, at 10 µM (top of the series)
For `O=C(NCCc1cccc(F)c1)C1CCCN(c2nc3ccccc3s2)C1` (configuration not stated), the “activity change, negative = inhibition” value was “inactive”. `Cc1cc(C)c2sc(N(CCCN(C)C)C(=O)c3ccc(S(=O)(=O)N4CCCc5ccccc54)cc3)nc2c1` was tested, and the “activity change, negative = inhibition” value was “inactive”. For `CCOC(=O)C1CCN(C2=C(NS(=O)(=O)c3ccc(Cl)cc3)C(=O)c3ccccc3C2=O)CC1`, the “activity change, negative = inhibition” value was “inactive”. With `Cc1cc(C)cc(OCC(O)CN2CCC(CN3C(=O)c4cccc5cccc(c45)C3=O)CC2)c1` (configuration not stated) the “activity change, negative = inhibition” value was “inactive”. In the case of `O=C(C[C@H]1CC[C@@H]2[C@H](COC[C@@H](O)CN2S(=O)(=O)c2ccc(F)cc2)O1)NCC1CCCCC1`, the “activity change, negative = inhibition” value is reported as “inactive”. `Cc1ccc2ccc(C(Nc3cccc(C(F)(F)F)c3)c3cccnc3)c(O)c2n1` (configuration not stated) was tested, and the “activity change, negative = inhibition” value was “inactive”. `Cn1c(SCC(=O)N2c3ccccc3Sc3ccc(Cl)cc32)nnc1-c1ccco1` was tested, and the “activity change, negative = inhibition” value was “inactive”. In the case of `C#CCOCCOCCOCCNc1nc(N2CCN(C(=O)[C@H](CCCN=C(N)N)n3cc(C(N)[C@@H](C)CC)nn3)CC2)nc(N2CCN(C(=O)[C@H](CCCCN)n3cc([C@@H](N)CC(N)=O)nn3)CC2)n1` (some centres not stated), the “activity change, negative = inhibition” value is reported as “inactive”. With `Cc1ccc(Nc2cc(C)nc3c(C)ccc([N+](=O)[O-])c23)cc1` the “activity change, negative = inhibition” value was “inactive”. For `CNC(=S)N1N=C(c2ccc(C)cc2)CC1c1ccc(N(C)C)cc1` (configuration not stated), the “activity change, negative = inhibition” value was “inactive”. For `Cc1cc(N=Nc2ccc(Cl)cc2)cc(CN2CCOCC2)c1O`, the “activity change, negative = inhibition” value was “inactive”. In the case of `c1ccc(C2=Nc3c(ccc4ccccc34)C(c3ccncc3)=NN2)cc1`, the “activity change, negative = inhibition” value is reported as “inactive”. `CC(C)N1C(=O)/C(=C\c2nc3ccccc3c(=O)[nH]2)c2ccccc21` was tested, and the “activity change, negative = inhibition” value was “inactive”. For `COc1ccc(-n2cc(CNCCc3cnc[nH]3)c(-c3cccc(F)c3)n2)cc1`, the “activity change, negative = inhibition” value was “inactive”. For `Cc1cc(N=Nc2ccc(Cl)cc2)cc(CN2CCCC2)c1O`, the “activity change, negative = inhibition” value was “inactive”. In the case of `Cn1ccc2c(N3CCCCCC3)cc3c(c21)C1CCC3C1` (configuration not stated), the “activity change, negative = inhibition” value is reported as “inactive”. For `COc1cccc(-c2ccc3c(c2)[C@H]2[C@H](CCN2C(=O)C2CCCCC2)[C@@H](CO)N3)c1`, the “activity change, negative = inhibition” value was “inactive”. With `CCOc1cc(CNc2cccc3[nH]c(C)nc23)ccc1OC` the “activity change, negative = inhibition” value was “inactive”. For `COc1ccc2ccccc2c1-c1sc(Nc2ccccc2)n[n+]1-c1ccc(F)cc1`, the “activity change, negative = inhibition” value was “inactive”. With `Cc1ccc(NC(=S)N/N=C/c2ccc([N+](=O)[O-])s2)cc1` the “activity change, negative = inhibition” value was “inactive”. `CCN1CCCc2cc(CN(CCN3CCOCC3)C(=S)Nc3cccc(C)c3)ccc21` was tested, and the “activity change, negative = inhibition” value was “inactive”. For `CCn1c(C)c(C(C)=O)c(N2CCN(c3ccc(OC)cc3)CC2)nc1=S`, the “activity change, negative = inhibition” value was “inactive”. With `O=C1CN=C(c2ccc(Br)cc2)c2c(sc3c2CCCC3)N1CCN1CCCCC1` the “activity change, negative = inhibition” value was “inactive”. With `CC1Cc2ccccc2N1C(=O)c1ccc(N2CCCC2)c([N+](=O)[O-])c1` (configuration not stated) the “activity change, negative = inhibition” value was “inactive”. In the case of `COc1ccc(N=C2S/C(=C\c3ccc(Cl)c([N+](=O)[O-])c3)C(=O)N2CCN(C)C)cc1`, the “activity change, negative = inhibition” value is reported as “inactive”. With `COc1cccc(-c2sc3ccccc3c2-c2ccc(OCCN(C)C)cc2)c1` the “activity change, negative = inhibition” value was “inactive”. With `COc1ccc(-c2oc3ccccc3c(=O)c2OC(C)=O)cc1` the “activity change, negative = inhibition” value was “inactive”. `CCCCOc1ccc2c(c1)C(=O)c1cc(O)ccc1-2` was tested, and the “activity change, negative = inhibition” value was “inactive”. For `Oc1ccccc1C=NCCN1CCN(CCN=Cc2ccccc2O)C1c1ccccc1O` (configuration not stated), the “activity change, negative = inhibition” value was “inactive”. For `S=C(NN=C(c1ccccc1)c1ccccn1)N(Cc1ccccn1)Cc1ccccn1`, the “activity change, negative = inhibition” value was “inactive”. In the case of `CCN(CC)c1ccc(N=Cc2cc(Br)ccc2O)cc1`, the “activity change, negative = inhibition” value is reported as “inactive”. `CCCCCN=C(N)N/N=C/c1c[nH]c2ccc(OC)cc12` was tested, and the “activity change, negative = inhibition” value was “inactive”. With `Cc1ccc2c(c1)c1c3n2CCCN(Cc2ccccc2)C3CCC1` (configuration not stated) the “activity change, negative = inhibition” value was “inactive”. For `C[C@H](CO)N1C[C@H](C)[C@H](CN(C)CC2CC2)OCCCC[C@H](C)Oc2ccc(NC(=O)Nc3ccc4c(c3)OCO4)cc2C1=O`, the “activity change, negative = inhibition” value was “inactive”. For `Fc1ccc([C@@H]2CCNC[C@H]2COc2ccc3c(c2)OCO3)cc1`, the “activity change, negative = inhibition” value was “inactive”. In the case of `O=C(Cc1cccnc1)N1CC(=O)N2[C@H](C1)[C@H](c1ccc(C3=CCCC3)cc1)[C@@H]2CO`, the “activity change, negative = inhibition” value is reported as “inactive”. For `CC1=NN(c2ccccc2)C(=O)/C1=C/C=C/c1ccc(N(C)C)cc1`, the “activity change, negative = inhibition” value was “inactive”. For `Nc1ccc(N)c(C(=O)O)c1`, the “activity change, negative = inhibition” value was “inactive”. In the case of `Cn1ccc2c(N3CCCCC3)cc3c(c21)C1CCC3C1` (configuration not stated), the “activity change, negative = inhibition” value is reported as “inactive”. With `CC#C[C@]1(O)CC[C@H]2[C@@H]3CCC4=CC(=O)CCC4=C3[C@@H](c3ccc(N(C)C)cc3)C[C@@]21C` the “activity change, negative = inhibition” value was “inactive”. In the case of `CCOc1ccc(OCCSc2ccc(S(=O)(=O)N3CCN(C)CC3)cn2)cc1`, the “activity change, negative = inhibition” value is reported as “inactive”.
